# Measured values published in patent publication US11819500B2, “T-cell regulation in t-cell mediated diseases by reducing pathogenic function of TH17 in a human subject through treatment with a nitroxide” (priority 2016, dated 2023).
# Legend:
# Cd5l [1] = assay: Serum level of Cd5l after Tempol treatment of a human subject; type: in vivo; settings: 1500 mg per day for 180 days
# Protocol: A human subject is administered a dose of 1500 mg of Tempol (or a nitroxide antioxidant) per day for 180 days. The human subject may be a 70-kilogram human subject. The human subject may be at risk of having pathogenic T-helper cell activity, may have symptoms of pathogenic T-helper cell activity, and/or may have a disease (e.g., an autoimmune disease) associated with pathogenic T-helper cell activity (e.g., pathogenic T-helper 17 cell activity). The autoimmune disease may be mediated by IL-23 as an effector molecule. The human subject can be identified. The dose may be administered in a single dose, or may be administered as a number of smaller doses over a 24-hour period: for example, three 500-mg doses at eight-hour intervals. Following treatment, the serum level of Cd5l is increased. Increased Cd5l expression can alter lipid biosynthesis within the T-helper cell, thus suppressing the pathogenic T-helper cell activity and/or reversing the effect of the pathogenic T-helper cell activity.
# A human subject is administered a dose of 1500 mg of Tempol (or a nitroxide antioxidant) per day for 180 days. The human subject may be a 70-kilogram human subject. The human subject may be at risk of developing an autoimmune disease, may have symptoms of an autoimmune disease, and/or may have an autoimmune disease. The autoimmune disease may be mediated by IL-23 as an effector molecule. […]
# Bri3 [2] = assay: Serum level of Bri3 after Tempol treatment of a human subject; type: in vivo; settings: human subject with or at risk of a neurodegenerative disease (e.g., Alzheimer's Disease); 1500 mg per day for 180 days
# Protocol: A human subject is administered a dose of 1500 mg of Tempol (or a nitroxide antioxidant) per day for 180 days. The human subject may be a 70-kilogram human subject over the age of 65. The human subject may be at risk of developing a neurodegenerative disease (e.g., Alzheimer's Disease), may have symptoms of a neurodegenerative disease, and/or may have a neurodegenerative disease. The risk, the symptoms, or the neurodegenerative disease may be caused by decreased expression level of Bri3. The human subject can be identified. The dose may be administered in a single dose, or may be administered as a number of smaller doses over a 24-hour period: for example, three 500-mg doses at eight-hour intervals. Following treatment, the serum level of Bri3 is increased. Increased Bri3 expression can inhibit amyloid precursor protein (APP) processing and amyloid plaque deposition, thus suppressing or reversing development of the neurodegenerative disease.
# Perp [3] = assay: Level of Perp after Tempol treatment of a human subject; type: in vivo; settings: 70-kilogram human subject with a disorder such as a desmosome-associated disorder; 1500 mg per day for 180 days
# Protocol: A human subject is administered a dose of 1500 mg of Tempol (or a nitroxide antioxidant) per day for 180 days. The human subject is a 70-kilogram human subject. The human subject may have a disorder (such as a desmosome-associated disorder, which can be associated or characterized by damaged epithelial tissue). The human subject can be identified. The dose may be administered in a single dose, or may be administered as a number of smaller doses over a 24-hour period: for example, three 500-mg doses at eight-hour intervals. Following treatment, the level (e.g., the serum level) of Perp is increased, which can in turn increase desmosome function (e.g., characterized by epithelial integrity)
# Bag5 = assay: Gene expression in cardiac tissue after Tempol administration (chip-based microarray); type: in vivo; settings: mice aged 31 months, Tempol 5 mg/g of food from 14 to 31 months, control mice 300
# Protocol: (§1) To assess the effects of Tempol on gene expression, Tempol was administered to experimental mice at a dose of 5 mg/g of food from 14 months to 31 months after birth. Mice receiving the same food without the addition of Tempol were used as a negative control. At the age of 31 months, the experimental animals were sacrificed and the hearts were surgically removed. The expression of a broad spectrum of genes in the cardiac tissue was assessed using chip-based microarray technology. Such chips are well known in the art and are widely used to assess gene expression.
# Bri3 [4] = assay: as above; type: in vivo; settings: mice aged 31 months, Tempol 5 mg/g of food from 14 to 31 months, control mice 1549
# Protocol: as §1
# Perp [5] = assay: as above; type: in vivo; settings: mice aged 31 months, Tempol 5 mg/g of food from 14 to 31 months, control mice 49
# Protocol: as §1
# Unc5b = assay: as above; type: in vivo; settings: mice aged 31 months, Tempol 5 mg/g of food from 14 to 31 months, control mice 103
# Protocol: as §1
# Cd5l [6] = assay: as above; type: in vivo; settings: mice aged 31 months, Tempol 5 mg/g of food from 14 to 31 months, control mice 150
# Protocol: as §1
# [7] = test system: Cd5l, Perp, Unc5b, Bag5 or Bri3; settings: human, in vivo
structure (smiles),measurement,setting,value
"CC1(C)CC(O)CC(C)(C)N1[O] [Tempol, 4-hydroxy-2,2,6,6-tetramethylpiperidine-1-oxyl]",serum level of Cd5l,Cd5l [1]; human subject with or at risk of developing an autoimmune disease,increased
same,serum level of Cd5l,Cd5l [1]; human subject with or at risk of pathogenic T-helper cell activity,increased
same,serum level of Bri3,Bri3 [2],increased
same,"level (e.g., the serum level) of Perp",Perp [3],increased
same,"Bag5 expression, Tempol-treated mice",Bag5,370
same,"Bri3 expression, Tempol-treated mice",Bri3 [4],1835
same,"Perp expression, Tempol-treated mice",Perp [5],82
same,"Unc5b expression, Tempol-treated mice",Unc5b,172
same,"Cd5l expression, Tempol-treated mice",Cd5l [6],406
same,"serum level of Cd5l, Perp, Unc5b, Bag5 or Bri3",[7],increased
